From patent US10377731B2, “Compositions and methods for cancer treatment” (Boston Biomedical, Inc., priority 2007, dated 2019) come the findings set out here.

Entries after “also recorded” stand apart in the source; their conditions may differ.

In experiment [1] the test system is Hoechst side population cells. In words: Annexin V staining of Hoechst side population cells. To be noted: Hoechst side population cells treated with compound. It counts as cell-based. As for the experimental part:
Hoechst Side Population: To identify and isolate side population (SP) and non-SP fractions, SW480 cells were removed from the culture dish with trypsin and EDTA, pelleted by centrifugation, washed with phosphate-buffered saline (PBS), and resuspended at 37° C. in Dulbecco's modified Eagle's medium (DMEM) containing 2% FBS and 1 mM HEPES. The cells were then labeled with Hoechst 33342 (Invitrogen) at a concentration of 5 μg/mL. The labeled cells were incubated for 120 minutes at 37° C., either alone or with 50 μM verapamil (Sigma-Aldrich, St. Louis). After staining, the cells were suspended in Hanks' balanced saline solution (HBSS; Invitrogen) containing 2% FBS and 1 mM HEPES, passed a through 40 μm mesh filter, and maintained at 4° C. until flow cytometry analysis. The Hoechst dye was excited at 350 nm, and its fluorescence was measured at two wavelengths using a 450 DF10 (450/20 nm band-pass filter) and a 675LP (675 nm long-pass edge filter) optical filter. The gating on forward and side scatter was not stringent, and only debris was excluded.
Analysis of Apoptosis: Cells treated with or without compound were harvested at 5 hours post treatment for Annexin-V staining. Collected cells were washed with PBS and resuspended in Annexin-V-FITC containing buffer and stained according to manufactures directions (Roche). Annexin-V positive cells were determined by Flow cytometry. […]

Experiment [2] concerns HepG2 human liver cancer cells. Put plainly: 72 hour MTT, HepG2 cells, single drugs and combinations. It counts as cell-based. The settings on record: read-out: Compound 401 (% Inhibition). As for the experimental part:
(§1) Cell Viability Determination: For 3-(4,5 dimethylthiazol-2-yl)-2,5-diphenyltetrazolium (MTT) (Sigma-Aldrich, St. Louis, Mo.) analysis, cells were plated in 96 well plates at 10,000 cells per well. 24 hours after plating, compound was added to cells at indicated doses. […] following compound addition, MTT was added to each well (0.5 mg/ml, final concentration) and plates were incubated for an additional 2 hours at 37° C. Medium was then aspirated and the formazan product was solubilized in 100 μl of isopropyl alcohol. The absorbance of each well was measured at 570 nm using a microplate reader.
(§2) Paca2 human pancreatic cancer cells, A549 human lung cancer cells, and HepG2 human liver cancer cells (American Type Culture Collection) were cultured in Dulbecco's modified Eagle's medium containing 10% fetal bovine serum, 100 units/mL penicillin, 100 μg/mL streptomycin, and 2 mM L-glutamine. […] Erlotinib was from American Custom Chemicals (San Diego, Calif.). Gemcitabine was from Eli Lilly (Indianapolis, Ind.) in an aqueous 20 mM stock solution. Sorafenib was Mass.). Unless otherwise noted all compounds were solubilized in DMSO at 10 mM and aliquoted at −20° C. Exponentially growing Paca2 pancreatic cancer cells were seeded at 1,000 cells per well in 6-well plates and allowed to attach for 24 hours. Increasing concentrations of individual drugs and those in combination were then added to the media for another 24 hours. After 24 hours exposure, the drug was removed and fresh media was added for the next 10-14 days, allowing for colony formation. Cells were fixed and stained with GIEMSA (Gibco BRL). […] Results are an average of duplicate experiments. Alternatively, MTT assays were performed 72 hours post-treatment in A549 and HepG2 cells.

A further experiment concerns CD44high CSCs (FaDu). Put plainly: Sphere assay (CSC spherogenesis). To be noted: FACS-isolated CD44high CSCs grown as spheres for 72 hours before challenge. The experiment is classed as cell-based, human. The method, then: CD44^high cells were isolated by FACS according to the methods described in Ponti et al, with slight modification. Briefly, after trypsinization and recovery of cells for 30 minutes at 37° C. in growth media, cells were pelleted at 400×g and were resuspended in PBS with 2% FBS and 1 mM EDTA at 1×10^6 cells/mL. Cells were then incubated on ice with a 1:100 dilution of CD44-FITC (BD Biosicences, San Diego, Calif.) for 15 minutes. Alternatively, CD24-PE (BD Bioscences, San Diego, Calif.) (1:100) was utilized for negative selection. After washing three times, cells were resuspended at 2×10^6/mL and passed through a […] mesh before sorting
Sphere assay: A reliable method of measuring the self-renewal capacity of cell population if the ability to be cultured as spheres in the absence of serum or attachment. CD44^high FaDu or Hoechst side population cancer stem cells were cultured in ultra low attachment plates in cancer stem cell media (DMEM/F12, B27 Neurobasal supplement, 20 ng/ml EGF, 10 ng/ml FGF, 4 μg/ml insulin, and 0.4% BSA) to allow spheres formation. Typically, sphere formation was evaluated by microscopy after 10-14 days in culture and spheres with >50 cells were scored.
Identification of compounds that inhibit CSC spherogenesis in vitro. One of the hallmarks of cancer stem cells is their ability to self-renew. A reliable method of measuring the self-renewal capacity of cell populations is the ability to be cultured as spheres in the absence of serum or attachment. To compare the ability of compound 401 to other targeted and chemotherapeutic agents, FACS-isolated CD44^high CSCs were grown as spheres for 72 hours before being challenged with a panel of therapeutic agents. […] Tarceva, Sutent, and Gleevec were added at approximately three times their reported therapeutic concentrations.

For experiment [3], the system named is A549 human lung cancer cells. In words: 72 hour MTT, A549 cells, single drugs and combinations. The experiment is classed as cell-based. To be noted: 72 hour MTT A549 cells, read-out: Compound 401 (% Inhibition). The method, then: as §1, §2

As for `CC(=O)c1cc2c(o1)C(=O)c1ccccc1C2=O` [Compound 401, 2-acetylnaphtho[2,3-b]furan-4,9-dione], the “Mode of cell death, Annexin V staining” value in experiment [1] is on record as “dying cells are Annexin V positive; also recorded: apoptotic”. The inhibition at 0.125 µM in experiment [2] (401 alone 125 nM) is 7%. Moreover, the inhibition at 0.25 µM in experiment [2] (401 alone 250 nM) came to 43%; in experiment [3] (401 alone 250 nM), 36%. Besides, the “Effect on CSC sphere proliferation / formation” value with CD44high CSCs (FaDu) is “effective at preventing sphere proliferation; also recorded: blocks”. In experiment [3] (401 alone 500 nM), the inhibition at 0.5 µM was 35%.
